Measurements published in patent US5698411A, “Method for determining activity of enzymes in metabolically active whole cells” (priority 1995, dated 1997).

Columns and labels:
Format in all cases: cell-based, human
[1] = test system: granulocytes; experiment: peptidase activity in leukemia and non-leukemia patients, granulocytes (Table 6C); design: unit not given here
From the text: (§1) Artificial intelligence was used to analyze data of cellular enzyme functions, and determine normal and disease states. Peptidases were used to distinguish leukemia from non-leukemia (output pattern). For input patterns lymphocyte and granulocyte cell types were used with aminopeptidases, cathepsins and dipeptidylpeptidase enzyme activities. In this Example, illustrated in Tables 6A-6C, three normals and three leukemia patients were used as known output patterns for the neural network to learn (in practice, the larger the learning set the more accurate unknown prediction will be). Unknowns were then presented to the learned algorithm as shown in the test case examples. Clinical diagnosis was confirmed by physicians. The trained neural network was able to correctly classify the leukemia from the non-leukemia.

[2] = test system: lymphocytes; experiment: peptidase activity in leukemia and non-leukemia patients, lymphocytes (Table 6C); design: unit not given here
From the text: as §1

[3] = test system: monocytes; experiment: aberrant enzyme activities in febrile children, monocytes (Table 7)
[4] = test system: lymphocytes; experiment: aberrant enzyme activities in febrile children, lymphocytes (Table 7)
[5] = test system: granulocytes; experiment: aberrant enzyme activities in febrile children, granulocytes (Table 7)

NCC(=O)N1CCC[C@H]1C(=O)Nc1ccc2c(c1)Oc1cc(NC(=O)[C@@H]3CCCN3C(=O)CN)ccc1C21OC(=O)c2ccccc21 [GP, (H-Gly--Pro)2 Rho .2TFA]
enzyme activity, Grans ([1]; J4 11/21/91 acute leuk.): 10.75
enzyme activity, Grans ([1]; J4 12/2/91 A L): 11.08
enzyme activity, Grans ([1]; J4 12/3/91 acute leuk.): 1.28
enzyme activity, Grans ([1]; J5 11/27/91 A M L): 8.95
enzyme activity, Grans ([1]; J19 11/27/91 C L L): 1.39
enzyme activity, Grans ([1]; J22 12/2/91 A M L): 13.98
enzyme activity, Grans ([1]; J22 12/9/91 A M L): 11.52
enzyme activity, Grans ([1]; N191 normal): 11.20
enzyme activity, Grans ([1]; N192 normal): 11.22
enzyme activity, Grans ([1]; N193 normal): 8.87
enzyme activity, Grans ([1]; N194 normal): 12.49
enzyme activity, Grans ([1]; N195 normal): 13.31
enzyme activity, Grans ([1]; N197 normal): 15.85
enzyme activity, Grans ([1]; N199 normal): 13.41
enzyme activity, Grans ([1]; N200 normal): 12.74
enzyme activity, Grans ([1]; N201 normal): 15.92
enzyme activity, Grans ([1]; N202 normal): 14.44
enzyme activity, Grans ([1]; N206 normal): 17.96
enzyme activity, Grans ([1]; P68 tachycardia): 16.08
enzyme activity, Grans ([1]; P69 pancreatic CA): 16.21
enzyme activity, Grans ([1]; P70 cirrhosis/hemobilia): 16.42
enzyme activity, Grans ([1]; P71 ac. pyelonephritis): 11.07
enzyme activity, Lymphs ([2]; J4 11/21/91 acute leuk.): 2.72
enzyme activity, Lymphs ([2]; J4 12/2/91 A L): 3.80
enzyme activity, Lymphs ([2]; J4 12/3/91 acute leuk.): 4.17
enzyme activity, Lymphs ([2]; J5 11/27/91 A M L): 3.40
enzyme activity, Lymphs ([2]; J19 11/27/91 C L L): 1.73
enzyme activity, Lymphs ([2]; J22 12/2/91 A M L): 1.73
enzyme activity, Lymphs ([2]; J22 12/9/91 A M L): 3.01
enzyme activity, Lymphs ([2]; N191 normal): 4.14
enzyme activity, Lymphs ([2]; N192 normal): 3.00
enzyme activity, Lymphs ([2]; N193 normal): 3.00
enzyme activity, Lymphs ([2]; N194 normal): 5.22
enzyme activity, Lymphs ([2]; N195 normal): 5.24
enzyme activity, Lymphs ([2]; N197 normal): 5.97
enzyme activity, Lymphs ([2]; N199 normal): 5.55
enzyme activity, Lymphs ([2]; N200 normal): 5.38
enzyme activity, Lymphs ([2]; N201 normal): 6.53
enzyme activity, Lymphs ([2]; N202 normal): 6.61
enzyme activity, Lymphs ([2]; N206 normal): 7.09
enzyme activity, Lymphs ([2]; P68 tachycardia): 5.92
enzyme activity, Lymphs ([2]; P69 pancreatic CA): 6.80
enzyme activity, Lymphs ([2]; P70 cirrhosis/hemobilia): 6.68
enzyme activity, Lymphs ([2]; P71 ac. pyelonephritis): 3.55

CC(C)C[C@H](N)C(=O)NCC(=O)Nc1ccc2c(c1)Oc1cc(NC(=O)CNC(=O)[C@@H](N)CC(C)C)ccc1C21OC(=O)c2ccccc21 [LG]
enzyme activity, Grans ([1]; J4 11/21/91 acute leuk.): 0.85
enzyme activity, Grans ([1]; J4 12/2/91 A L): 0.79
enzyme activity, Grans ([1]; N200 normal): 3.40
enzyme activity, Grans ([1]; N202 normal): 2.70
enzyme activity, Grans ([1]; P70 cirrhosis/hemobilia): 2.20
enzyme activity, Grans ([1]; P71 ac. pyelonephritis): 4.00
enzyme activity, Lymphs ([2]; J4 11/21/91 acute leuk.): 0.16
enzyme activity, Lymphs ([2]; J4 12/2/91 A L): 0.18
enzyme activity, Lymphs ([2]; J4 12/3/91 acute leuk.): 0.19
enzyme activity, Lymphs ([2]; J5 11/27/91 A M L): 0.23
enzyme activity, Lymphs ([2]; J19 11/27/91 C L L): 0.02
enzyme activity, Lymphs ([2]; J22 12/2/91 A M L): 0.02
enzyme activity, Lymphs ([2]; J22 12/9/91 A M L): 0.61
enzyme activity, Lymphs ([2]; N199 normal): 0.85
enzyme activity, Lymphs ([2]; P68 tachycardia): 0.78
enzyme activity, Lymphs ([2]; P69 pancreatic CA): 2.00
enzyme activity, Lymphs ([2]; P70 cirrhosis/hemobilia): 0.79
enzyme activity, Lymphs ([2]; P71 ac. pyelonephritis): 0.68
aberrant enzyme activity, MONOS ([3]; P92 Adenitis): .smallcircle.
aberrant enzyme activity, MONOS ([3]; P96 Viral Syndrome): .smallcircle.
aberrant enzyme activity, MONOS ([3]; P97 Pyelonephritis): .smallcircle.
aberrant enzyme activity, MONOS ([3]; P101 Fever -- Unknown Origin): .smallcircle.
aberrant enzyme activity, MONOS ([3]; P103 Viral Syndrome): .smallcircle.
aberrant enzyme activity, LYMPHS ([4]; P92 Adenitis): .smallcircle.
aberrant enzyme activity, LYMPHS ([4]; P97 Pyelonephritis): .smallcircle.
aberrant enzyme activity, LYMPHS ([4]; P102 UTI): .smallcircle.
aberrant enzyme activity, LYMPHS ([4]; P103 Viral Syndrome): .smallcircle.
aberrant enzyme activity, GRANS ([5]; P92 Adenitis): .smallcircle.
aberrant enzyme activity, GRANS ([5]; P96 Viral Syndrome): .smallcircle.
aberrant enzyme activity, GRANS ([5]; P97 Pyelonephritis): .smallcircle.
aberrant enzyme activity, GRANS ([5]; P101 Fever -- Unknown Origin): .smallcircle.
aberrant enzyme activity, GRANS ([5]; P102 UTI): .smallcircle.
